Assay: Toxicity (LD50)
Conditions: in vivo

## O=C(O[C@@H]1O[C@H](CO)[C@@H](O)[C@H](O)[C@H]1O)c1cc(O)c(O)c(O)c1 [β-glucogallin, 1-O-galloyl-β-D-glucose]
  LD50: approx. 2000 mg/kg bodyweight

— patent US20190060337A1, “COMPOSITIONS COMPRISING BETA-GLUCOGALLIN AND THERAPEUTIC APPLICATIONS THEREOF IN CONTROLLED KINETICS OF CARBOHYDRATE BREAKDOWN AND MONOSACCHARIDE ABSORPTION” (priority 2017, published 2019)
